Assay results published in US20230135093A1, “TRIAZOLYL DERIVATIVES AS GABA A ALPHA5 PAM” (Hoffmann-La Roche Inc., priority 2020, published 2023).

Assays:
h-GABA-A α5β3γ2 [1] = biological target: T1, h-GABA-A α5β3γ2 (Homo sapiens, UniProt P18507+P31644); assay: [3H]flumazenil competition binding assay on membranes of HEK293 cells expressing GABAA receptors; details: Table 1; displacement of [3H]-Flumazenil (0.5 nM), HEK293 cells expressing human receptors, means of two determinations
T1 construct: expressed in transfected cells; host or cells: Xenopus laevis oocytes, micro-injected with subunit RNA
Description: The affinity of compounds at GABAA receptor subtypes was measured by competition for [3H]flumazenil (85 Ci/mmol; Roche) binding to HEK293 cells expressing rat (stably transfected) or human (transiently transfected) receptors of composition α1β3γ2, α2β3γ2, α3β3γ2 and α5β3γ2.
Cell pellets were suspended in Krebs-tris buffer (4.8 mM KCl, 1.2 mM CaCl2, 1.2 mM MgCl2, 120 mM NaCl, 15 mM Tris; pH 7.5; binding assay buffer), homogenized by polytron for ca. 20 sec on ice and centrifuged for 60 min at 4° C. (50000 g; Sorvall, rotor: SM24=20000 rpm). The cell pellets were resuspended in Krebs-tris buffer and homogenized by polytron for ca. 15 sec on ice. Protein was measured (Bradford method, Bio-Rad) and aliquots of 1 mL were prepared and stored at −80° C.
Radioligand binding assays were carried out in a volume of […] (96-well plates) which contained […] of cell membranes, [^3H]-Flumazenil at a concentration of 1 nM for α1, α2, α3 subunits and 0.5 nM for α5 subunits and the test compound in the range of […]. Nonspecific binding was defined by 10^−5 M diazepam and typically represented less than 5% of the total binding. Assays were incubated to equilibrium for 1 hour at 4° C. and harvested onto GF/C uni-filters (Packard) by filtration using a Packard harvester and washing with ice-cold wash buffer (50 mM Tris; pH 7.5). After drying, filter-retained radioactivity was detected by liquid scintillation counting. Ki values were calculated using Excel-Fit (Microsoft) and are the means of two determinations.
In a preferred embodiment the compounds of the invention are binding selective for the α5 subunit relative to the α1, α2 and α3 subunit. Representative test results, obtained by the above described assay measuring binding affinity to HEK293 cells expressing human (h) receptors, are shown in the Table below.

h-GABA-A α5β3γ2 [2] = biological target: T1, h-GABA-A α5β3γ2; assay: Two-electrode voltage clamp electrophysiology in Xenopus oocytes expressing GABAA receptors (modulation of GABA EC20 current); type: cell-based; details: Table 1; for Efficacy (GABA) %: % modulation of GABA EC20 = 100*(Fold increase-1); for Fold increase h-GABA-A α5β3γ2 oocyte: Xenopus oocytes, GABA EC20, test compound at approximatively 30 fold its Ki
Description: Xenopus laevis oocytes at maturation stages V-VI were used for the expression of cloned mRNA encoding GABAA receptor subunits. Oocytes ready for RNA micro-injection were bought from Ecocyte, Castrop-Rauxel, Germany and stored in modified Barth's medium (composition in mM: NaCl 88, KCl 1, NaHCO3 2.4, HEPES 10, MgSO4 0.82, CaNO3 0.33, CaCl2 0.33, pH=7.5) at 20° C. until the experiment.
Oocytes were plated in 96-well plates to be used in an automated instrument (Robo-ocyte, MultiChannelSystems, Reutlingen, Germany) for microinjection and electrophysiological recordings. Approximately 50 nl of an aqueous solution containing the RNA transcripts for the subunits of the desired GABAA receptor was injected into each oocyte. RNA concentrations ranged between 0.3 and 16 ng/μl/subunit and were adjusted in pilot experiments to obtain GABA responses of a suitable size and a maximal effect of the reference modulator, Beta-CCM (3-CCM), a betacarboline negative allosteric modulator (NAM) at the GABAA receptor benzodiazepine (BZD) binding site or Midazolam, a benzodiazepine positive allosteric modulator (PAM) at the GABAA receptor benzodiazepine (BZD) binding site. The concentration of the γ2 subunit encoding RNA usually was 5- to 10-fold higher than the RNAs encoding the other subunits. Oocytes were kept in modified Barth's medium (composition in mM: NaCl 88, KCl 1, NaHCO3 4, HEPES 10, MgSO4 0.82, CaNO3 0.33, CaCl2 0.33, pH=7.5) at 20° C. until the experiment.
Electrophysiological experiments were performed on days 3 to 5 after the micro-injection of mRNA. During the experiment the oocytes were constantly superfused by a solution containing (in mM) NaCl 90, KCl 1, HEPES 5, MgCl2 1, CaCl2 1 (pH 7.4). Oocytes were impaled by two glass microelectrodes (resistance: 0.4 MQ) which were filled with a solution containing KCl 1M+K-acetate 1.5 M and voltage-clamped to −80 mV. The recordings were performed at room temperature using the Roboocyte two-electrode voltage clamp system (Multichannelsystem). After an initial equilibration period of 1.5 min GABA was added for 1.5 min at a concentration evoking approximately 20% of a maximal current response (EC20). After another rest interval of 2.5 min GABA was again added evoking a response of similar amplitude and shape. 0.5 min after the onset of this second GABA application the test compound, at a concentration corresponding to approximatively 30 fold its Ki, was added while GABA was still present. Current traces were recorded at a digitization rate of 10 Hz during and shortly before and after the GABA application.
Each compound and concentration was tested on at least 3 oocytes. Different oocytes were used for different compound concentrations. β-CCM, a negative allosteric modulator, or Midazolam, a positive allosteric modulators, were tested on a few (3-6) oocytes on each 96-well plate for a positive control at a maximally effective. β-CCM inhibited the GABA-evoked current by approximatively 50% (Fold increase 0.5), while Midazolam potentiated the GABA-induced current by approximatively 150% (Fold increase 2.5).
For the analysis, the digitized current traces of the first and second GABA response were superimposed and, if necessary, rescaled to equal maximal amplitudes. The ratio between the two responses during the time interval of test compound application was calculated point by point. The extremum of the resulting “ratio trace” was taken as the efficacy (“Fold increase”) of the compound expressed as “% modulation of GABA EC20” (100*(Fold increase-1)).

Row | SMILES | Ki (h-GABA-A α5β3γ2 [1]) | Efficacy (GABA) % (h-GABA-A α5β3γ2 [2]) | Fold increase h-GABA-A α5β3γ2 oocyte (h-GABA-A α5β3γ2 [2])
1 | Cc1ccc(-c2nnn(C)c2Cn2ncc(N3C[C@H](C)O[C@@H](C)C3)cc2=O)cn1 (racemic) [Example 12, 2-[[3-methyl-5-(6-methyl-3-pyridyl)triazol-4-yl]methyl]-5-[rac-(2S,6S)-2,6-dimethylmorpholin-4-yl]pyridazin-3-one] | 2.6 nM | 191% | 2.91
2 | Cc1ccc(-c2nnn(C)c2Cn2ncc(N3C[C@@H](C)O[C@@H](C)C3)cc2=O)cn1 [Example 2, 5-(cis-2,6-dimethylmorpholin-4-yl)-2-((3-methyl-5-(6-methylpyridin-3-yl)triazol-4-yl)methyl)pyridazin-3-one] | 4.7 nM | 230% | 
3 | Cc1nnn(-c2ccc(Cl)cc2F)c1Cn1ncc(N(C)C)cc1=O [Example 5, 2-((3-(4-chloro-2-fluoro-phenyl)-5-methyl-triazol-4-yl)methyl)-5-(dimethylamino)pyridazin-3-one] | 18.4 nM | 58% | 1.58
4 | Cc1nnn(-c2ccc(Cl)cc2F)c1Cn1ncc(N2CCN(C(=O)C3CC3)CC2)cc1=O [Example 6, 2-((3-(4-chloro-2-fluoro-phenyl)-5-methyl-triazol-4-yl)methyl)-5-(4-(cyclopropane-carbonyl)piperazin-1-yl)pyridazin-3-one] | 71.8 nM | 121% | 2.21

The next lines start with the values.

Row | Ki (h-GABA-A α5β3γ2 [1]) | Efficacy (GABA) % (h-GABA-A α5β3γ2 [2]) | Fold increase h-GABA-A α5β3γ2 oocyte (h-GABA-A α5β3γ2 [2]) | SMILES
5 | 3.6 nM | 135% | 2.35 | Cc1nnn(-c2ccc(Cl)cc2F)c1Cn1ncc(N2C[C@H](C)O[C@@H](C)C2)cc1=O (racemic) [Example 37, 2-[[3-(4-chloro-2-fluoro-phenyl)-5-methyl-triazol-4-yl]methyl]-5-[rac-(2S,6S)-2,6-dimethylmorpholin-4-yl]pyridazin-3-one]
6 | 34.4 nM | 190% | 2.9 | Cc1ccc(-n2nnc(C)c2Cn2ncc(N3C[C@@H](C)O[C@@H](C)C3)cc2=O)cn1 [Example 1, 5-(cis-2,6-dimethylmorpholin-4-yl)-2-((5-methyl-3-(6-methylpyridin-3-yl)triazol-4-yl)methyl)pyridazin-3-one]
7 | 1.2 nM | 124% | 2.24 | C[C@@H]1CN(c2cnn(Cc3c(-c4ccc(Cl)cc4F)nnn3C)c(=O)c2)C[C@H](C)O1 [Example 3, 2-((5-(4-chloro-2-fluoro-phenyl)-3-methyl-triazol-4-yl)methyl)-5-(cis-2,6-dimethylmorpholin-4-yl)pyridazin-3-one]
8 | 15.6 nM | 97% | 1.97 | Cc1nnn(-c2ccc(Cl)cc2F)c1Cn1ncc(N2CCOCC2)cc1=O [Example 4, 2-((3-(4-chloro-2-fluoro-phenyl)-5-methyl-triazol-4-yl)methyl)-5-morpholino-pyridazin-3-one]
9 | 5.8 nM | 164% | 2.64 | Cc1nnn(-c2ccc(Cl)cc2F)c1Cn1ncc(N2C[C@@H](C)O[C@@H](C)C2)cc1=O [Example 7, 2-((3-(4-chloro-2-fluoro-phenyl)-5-methyl-triazol-4-yl)methyl)-5-((2S,6R)-2,6-dimethylmorpholin-4-yl)pyridazin-3-one]
